Laboratory results reported in ChEMBL document CHEMBL1201862, “PubChem BioAssay data set” (2004).
Activity calls are given as the source filed them.

Legend:
[1] = HepG2 cell cytotoxicity, dose response, cytotoxicity control, plate reader, dry powder samples (AID 1159569); type: functional, cell-based;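 also: inhibitor potency with signal falling toward the positive control level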
[2] = P. falciparum Dd2 growth inhibitors, dose response, SYBR Green, cherry-picked samples (AID 1159567); type: functional, cell-based
[3] = P. falciparum Dd2 growth inhibitors, dose response, SYBR Green, dry powder samples (AID 1159566); type: functional, cell-based;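 also: potency for growth inhibition with lower SYBR green DNA signal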
[4] = P. falciparum 3D7-ScDHODH growth inhibitors, dose response, SYBR Green, dry powder samples (AID 1159570); type: functional, cell-based;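 also: parasite growth measured after 72 hours of compound exposure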
[5] = P. falciparum ATP4 D1247Y mutant growth inhibitors, dose response, NITD609-resistant line, SYBR Green, dry powder (AID 1159571); type: functional, cell-based;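 also: parasites synchronized at ring stage by sorbitol before testing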
[6] = biological target: T1, RNA-binding protein pos-1 (Caenorhabditis elegans, UniProt G5EF15); test: inhibitors of POS-1/mex-3 RNA binding, dose response, biochemical, fluorescence polarization (AID 1964);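 also: purified POS-1 fused to maltose binding protein made in E. coli; potency of compounds blocking POS-1 binding to fluorescent RNA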
T1 sequence (G5EF15 whole entry): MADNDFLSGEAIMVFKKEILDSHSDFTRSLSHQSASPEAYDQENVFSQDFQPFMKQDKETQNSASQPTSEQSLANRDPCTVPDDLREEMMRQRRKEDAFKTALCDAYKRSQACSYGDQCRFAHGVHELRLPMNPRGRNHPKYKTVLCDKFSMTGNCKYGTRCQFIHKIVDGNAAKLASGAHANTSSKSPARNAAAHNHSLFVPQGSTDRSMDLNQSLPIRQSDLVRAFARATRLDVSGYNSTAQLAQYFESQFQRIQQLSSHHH

[7] = M. tuberculosis H37Rv growth inhibitors, H37Rv strain (AID 1626); type: functional
[8] = biological target: T2, Zinc finger protein mex-5 (Caenorhabditis elegans, UniProt Q9XUB2); test: MEX-5/TCR-2 RNA interaction inhibitors, dose response, biochemical, C. elegans, fluorescence polarization (AID 1960)
T2 sequence (Q9XUB2 whole entry): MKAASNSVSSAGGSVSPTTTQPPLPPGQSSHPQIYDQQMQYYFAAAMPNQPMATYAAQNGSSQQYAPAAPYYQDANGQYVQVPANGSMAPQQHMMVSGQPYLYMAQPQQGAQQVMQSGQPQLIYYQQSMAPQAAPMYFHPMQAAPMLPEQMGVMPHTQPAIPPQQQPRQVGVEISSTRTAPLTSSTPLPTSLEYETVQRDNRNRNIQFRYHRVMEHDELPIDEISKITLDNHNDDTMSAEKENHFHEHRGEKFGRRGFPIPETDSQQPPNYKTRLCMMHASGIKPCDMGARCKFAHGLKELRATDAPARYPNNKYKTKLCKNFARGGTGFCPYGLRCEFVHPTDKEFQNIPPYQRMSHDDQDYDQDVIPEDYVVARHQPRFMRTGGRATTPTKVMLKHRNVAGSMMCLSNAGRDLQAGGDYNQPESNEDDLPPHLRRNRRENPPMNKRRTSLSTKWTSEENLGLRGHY

[9] = biological target: Estrogen receptor beta (Homo sapiens, UniProt Q92731);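 also: recombinant ER-beta bound to coactivator SRC1 peptide in presence of estradiol agonist; inhibitors block coactivator peptide binding and lower the FRET signal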
[10] = biological target: Estrogen receptor (Homo sapiens, UniProt P03372);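 also: potency for inhibiting coactivator peptide recruitment to the receptor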
Chain of Estrogen receptor (P03372 whole entry): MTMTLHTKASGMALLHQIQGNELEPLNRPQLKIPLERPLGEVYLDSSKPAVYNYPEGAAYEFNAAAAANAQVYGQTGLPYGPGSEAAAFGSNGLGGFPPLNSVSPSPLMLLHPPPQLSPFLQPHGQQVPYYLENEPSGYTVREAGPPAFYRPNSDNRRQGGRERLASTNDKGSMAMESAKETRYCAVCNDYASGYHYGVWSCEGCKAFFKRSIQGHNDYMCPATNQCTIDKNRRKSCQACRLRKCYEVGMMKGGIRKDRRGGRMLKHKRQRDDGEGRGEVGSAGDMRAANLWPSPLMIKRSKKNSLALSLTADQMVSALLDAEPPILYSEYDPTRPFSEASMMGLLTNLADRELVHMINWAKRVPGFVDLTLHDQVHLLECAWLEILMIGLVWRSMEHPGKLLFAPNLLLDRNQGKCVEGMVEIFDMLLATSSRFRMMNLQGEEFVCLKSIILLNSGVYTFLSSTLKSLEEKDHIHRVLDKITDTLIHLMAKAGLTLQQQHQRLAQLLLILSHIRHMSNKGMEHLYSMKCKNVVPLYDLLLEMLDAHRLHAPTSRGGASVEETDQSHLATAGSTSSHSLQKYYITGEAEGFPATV

[11] = THP-1 cell cytotoxicity, dose response, cytotoxicity control for Vif-APOBEC3G degradation inhibitor project, THP-1 cells (AID 1117359); type: functional; conditions: Human immunodeficiency virus 1, THP-1
[12] = biological target: T3, Short transient receptor potential channel 4 (Mus musculus, UniProt Q9QUQ5); test: mouse TRPC4 channel inhibitors, dose response, cell-based, HEK293 TRPC4/mu-opioid, Fluo-4 calcium (AID 434942); type: functional;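 also: potency of inhibitors blocking the TRPC4 calcium response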
T3 sequence (Q9QUQ5 whole entry): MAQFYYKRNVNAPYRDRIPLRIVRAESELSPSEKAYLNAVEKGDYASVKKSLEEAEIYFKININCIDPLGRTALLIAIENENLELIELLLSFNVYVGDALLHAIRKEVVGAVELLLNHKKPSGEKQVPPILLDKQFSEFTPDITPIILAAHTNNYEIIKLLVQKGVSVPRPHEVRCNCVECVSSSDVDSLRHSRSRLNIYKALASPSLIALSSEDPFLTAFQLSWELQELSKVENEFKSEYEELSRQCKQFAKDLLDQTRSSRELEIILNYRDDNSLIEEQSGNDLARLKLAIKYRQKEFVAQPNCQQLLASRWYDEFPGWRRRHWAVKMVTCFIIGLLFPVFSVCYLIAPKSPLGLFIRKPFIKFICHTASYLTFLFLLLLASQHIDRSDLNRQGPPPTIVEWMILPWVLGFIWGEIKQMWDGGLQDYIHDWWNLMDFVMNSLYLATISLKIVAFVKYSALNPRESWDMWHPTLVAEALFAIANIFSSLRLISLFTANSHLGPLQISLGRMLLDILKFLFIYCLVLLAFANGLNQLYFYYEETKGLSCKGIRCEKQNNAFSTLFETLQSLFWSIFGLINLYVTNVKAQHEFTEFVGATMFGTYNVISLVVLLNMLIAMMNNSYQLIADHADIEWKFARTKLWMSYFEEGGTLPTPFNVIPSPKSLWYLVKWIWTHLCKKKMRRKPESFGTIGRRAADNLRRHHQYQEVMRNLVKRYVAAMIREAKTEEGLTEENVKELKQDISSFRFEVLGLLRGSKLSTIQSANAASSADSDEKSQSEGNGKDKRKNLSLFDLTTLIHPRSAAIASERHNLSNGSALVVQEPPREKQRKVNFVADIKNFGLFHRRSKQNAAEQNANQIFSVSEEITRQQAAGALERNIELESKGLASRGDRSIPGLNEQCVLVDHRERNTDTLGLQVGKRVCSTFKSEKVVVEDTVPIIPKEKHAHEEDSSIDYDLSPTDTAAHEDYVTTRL

[13] = Vero cell cytotoxicity, dose response, cytotoxicity control for Vif-APOBEC3G degradation inhibitor project, Vero cells (AID 1117358); type: functional; conditions: Human immunodeficiency virus 1, Vero
[14] = biological target: Ion channel NompC (Danio rerio, UniProt Q7T1G6); test: Fluorescence counterscreen assay for TRPML3 agonists: dose response cell-based high-throughput screening assay to identify agonists of the transient receptor potential channel N1 (TRPN1). [Related pubchem assays: 1526, 1424, 1448 ]; type: functional
Chain of Ion channel NompC (Q7T1G6 whole entry): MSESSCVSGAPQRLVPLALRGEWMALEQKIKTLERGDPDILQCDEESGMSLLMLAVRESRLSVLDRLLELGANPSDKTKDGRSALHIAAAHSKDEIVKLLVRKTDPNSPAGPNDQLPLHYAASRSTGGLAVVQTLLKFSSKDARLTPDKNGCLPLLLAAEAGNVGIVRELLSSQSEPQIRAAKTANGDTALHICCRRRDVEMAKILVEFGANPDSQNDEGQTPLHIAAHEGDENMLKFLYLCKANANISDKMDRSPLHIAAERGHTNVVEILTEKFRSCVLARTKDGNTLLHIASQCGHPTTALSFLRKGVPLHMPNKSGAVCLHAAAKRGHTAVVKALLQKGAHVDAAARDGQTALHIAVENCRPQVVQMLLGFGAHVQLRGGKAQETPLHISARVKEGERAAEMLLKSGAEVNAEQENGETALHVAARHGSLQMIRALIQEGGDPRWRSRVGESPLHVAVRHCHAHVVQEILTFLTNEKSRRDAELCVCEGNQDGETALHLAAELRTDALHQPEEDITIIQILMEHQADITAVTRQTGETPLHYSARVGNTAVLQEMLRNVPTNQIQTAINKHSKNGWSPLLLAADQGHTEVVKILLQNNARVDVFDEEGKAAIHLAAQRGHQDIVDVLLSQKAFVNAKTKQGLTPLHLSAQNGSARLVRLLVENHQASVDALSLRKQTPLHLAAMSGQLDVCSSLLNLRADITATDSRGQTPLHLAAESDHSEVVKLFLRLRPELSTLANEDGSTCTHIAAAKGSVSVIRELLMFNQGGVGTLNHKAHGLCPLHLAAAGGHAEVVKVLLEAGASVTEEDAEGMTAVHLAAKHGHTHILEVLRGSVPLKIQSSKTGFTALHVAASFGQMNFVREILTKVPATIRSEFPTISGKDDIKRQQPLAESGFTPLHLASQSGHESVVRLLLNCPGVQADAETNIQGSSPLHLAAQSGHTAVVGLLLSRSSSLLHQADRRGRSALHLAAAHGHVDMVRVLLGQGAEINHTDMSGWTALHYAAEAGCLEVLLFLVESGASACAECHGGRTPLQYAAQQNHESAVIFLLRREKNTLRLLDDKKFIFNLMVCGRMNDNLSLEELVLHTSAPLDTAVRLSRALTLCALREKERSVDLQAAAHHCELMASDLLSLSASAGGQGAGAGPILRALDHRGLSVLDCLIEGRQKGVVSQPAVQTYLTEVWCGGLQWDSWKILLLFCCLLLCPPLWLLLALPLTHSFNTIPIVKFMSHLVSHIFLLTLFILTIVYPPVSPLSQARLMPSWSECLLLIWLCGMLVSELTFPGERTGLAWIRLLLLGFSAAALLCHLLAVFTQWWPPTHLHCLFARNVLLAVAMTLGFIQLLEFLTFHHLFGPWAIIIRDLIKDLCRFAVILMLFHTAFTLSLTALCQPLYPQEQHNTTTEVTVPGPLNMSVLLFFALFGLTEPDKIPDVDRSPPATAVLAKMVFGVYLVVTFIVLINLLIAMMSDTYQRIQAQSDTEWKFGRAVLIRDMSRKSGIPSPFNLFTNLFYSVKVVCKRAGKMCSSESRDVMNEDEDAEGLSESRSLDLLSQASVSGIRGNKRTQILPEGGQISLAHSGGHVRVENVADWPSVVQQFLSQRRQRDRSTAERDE

[15] = biological target: Mucolipin-3 (Homo sapiens, UniProt Q8TDD5); test: Dose response cell-based high-throughput screening assay for agonists of the transient receptor potential channel ML3 (TRPML3). [Related pubchem assays: 1526, 1424, 1448 ]; type: functional
Chain of Mucolipin-3 (Q8TDD5 whole entry): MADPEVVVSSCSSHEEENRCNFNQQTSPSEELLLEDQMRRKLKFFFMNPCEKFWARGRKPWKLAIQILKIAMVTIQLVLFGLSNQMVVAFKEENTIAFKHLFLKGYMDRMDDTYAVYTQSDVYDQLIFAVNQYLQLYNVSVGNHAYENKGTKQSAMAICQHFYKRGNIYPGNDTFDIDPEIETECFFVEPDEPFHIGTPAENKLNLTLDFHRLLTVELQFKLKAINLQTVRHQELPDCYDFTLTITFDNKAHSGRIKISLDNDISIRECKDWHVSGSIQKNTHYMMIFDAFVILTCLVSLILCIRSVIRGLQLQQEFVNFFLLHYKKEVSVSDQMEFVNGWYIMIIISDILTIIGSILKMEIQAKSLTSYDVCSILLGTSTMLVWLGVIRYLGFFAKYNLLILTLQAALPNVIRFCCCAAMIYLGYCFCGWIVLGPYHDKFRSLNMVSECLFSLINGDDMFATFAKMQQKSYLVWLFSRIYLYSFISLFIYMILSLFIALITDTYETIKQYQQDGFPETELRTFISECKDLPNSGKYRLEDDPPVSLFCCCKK

[16] = biological target: Voltage-dependent T-type calcium channel subunit alpha-1H (Homo sapiens, UniProt O95180); type: functional;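 also: channel activity triggered by adding a high calcium stimulation buffer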
[17] = biological target: Sphingosine 1-phosphate receptor 2 (Homo sapiens, UniProt O95136); test: Dose Response Cell Based Assay for Agonists of the S1P2 Receptor. [Related pubchem assays: 729, 736, 843 ]; type: functional
Chain of Sphingosine 1-phosphate receptor 2 (O95136 whole entry): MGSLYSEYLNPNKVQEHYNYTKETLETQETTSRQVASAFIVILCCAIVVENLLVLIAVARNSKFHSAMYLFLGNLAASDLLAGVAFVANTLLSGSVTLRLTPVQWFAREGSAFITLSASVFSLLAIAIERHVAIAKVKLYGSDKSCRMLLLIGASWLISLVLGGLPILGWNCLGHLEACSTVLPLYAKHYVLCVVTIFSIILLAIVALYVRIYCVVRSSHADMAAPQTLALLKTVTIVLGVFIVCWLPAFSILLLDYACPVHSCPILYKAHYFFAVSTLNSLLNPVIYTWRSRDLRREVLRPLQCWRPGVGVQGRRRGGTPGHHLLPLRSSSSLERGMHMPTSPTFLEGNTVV

[18] = biological target: NADPH oxidase 1 (Homo sapiens, UniProt Q9Y5S8); test: Luminescence-based cell-based dose response assay to identify inhibitors of NADPH oxidase 1 (NOX1).; type: functional
Chain of NADPH oxidase 1 (Q9Y5S8 whole entry): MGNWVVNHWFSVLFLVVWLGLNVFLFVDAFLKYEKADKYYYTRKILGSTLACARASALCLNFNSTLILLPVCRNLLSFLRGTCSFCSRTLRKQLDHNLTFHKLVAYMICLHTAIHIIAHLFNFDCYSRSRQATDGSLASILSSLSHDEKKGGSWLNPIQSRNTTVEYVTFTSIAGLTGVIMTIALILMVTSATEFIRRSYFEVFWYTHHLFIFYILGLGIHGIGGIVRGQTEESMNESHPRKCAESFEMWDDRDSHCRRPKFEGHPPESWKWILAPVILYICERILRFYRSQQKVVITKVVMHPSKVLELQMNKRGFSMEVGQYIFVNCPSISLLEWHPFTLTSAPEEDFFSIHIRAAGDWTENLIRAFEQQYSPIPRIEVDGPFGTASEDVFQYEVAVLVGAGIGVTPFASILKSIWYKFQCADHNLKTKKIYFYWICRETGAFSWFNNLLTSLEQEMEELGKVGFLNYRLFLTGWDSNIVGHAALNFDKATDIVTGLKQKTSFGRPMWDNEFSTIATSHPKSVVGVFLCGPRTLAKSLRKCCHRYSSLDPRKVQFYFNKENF

[19] = biological target: Epstein-Barr nuclear antigen 1 (Epstein-Barr virus (strain B95-8) (HHV-4) (Human herpesvirus 4), UniProt P03211); test: EBNA-1 inhibitors, dose response, biochemical, fluorescence polarization, 1536-well (AID 2381); design: species or system human gammaherpesvirus 4;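 also: fluorescence polarization of a Cy5 DNA probe bound by EBNA-1 protein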
[20] = biological target: Lytic switch protein BZLF1 (Epstein-Barr virus (strain B95-8) (HHV-4) (Human herpesvirus 4), UniProt P03206); test: EBV ZTA inhibitors, dose response, counter-screen for EBNA-1 inhibitor project, biochemical, fluorescence polarization, Epstein-Barr virus, 1536-well (AID 2377); design: species or system human gammaherpesvirus 4;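 also: fluorescence polarization of Cy5-labelled ZRE DNA probe bound by purified Zta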
Chain of Lytic switch protein BZLF1 (P03206 whole entry): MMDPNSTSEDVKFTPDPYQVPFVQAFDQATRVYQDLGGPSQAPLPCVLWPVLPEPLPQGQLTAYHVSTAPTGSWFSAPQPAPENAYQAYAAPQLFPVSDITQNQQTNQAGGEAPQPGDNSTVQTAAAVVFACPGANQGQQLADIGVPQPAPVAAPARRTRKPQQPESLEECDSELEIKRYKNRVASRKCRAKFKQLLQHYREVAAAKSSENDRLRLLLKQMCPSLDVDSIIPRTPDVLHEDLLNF

[21] = biological target: T4, Calpain-2 catalytic subunit (Sus scrofa, UniProt P43367); test: pig calpain II inhibitor potency, dose response, biochemical, fluorogenic peptide substrate (AID 1420); type: functional
T4 sequence (P43367 whole entry): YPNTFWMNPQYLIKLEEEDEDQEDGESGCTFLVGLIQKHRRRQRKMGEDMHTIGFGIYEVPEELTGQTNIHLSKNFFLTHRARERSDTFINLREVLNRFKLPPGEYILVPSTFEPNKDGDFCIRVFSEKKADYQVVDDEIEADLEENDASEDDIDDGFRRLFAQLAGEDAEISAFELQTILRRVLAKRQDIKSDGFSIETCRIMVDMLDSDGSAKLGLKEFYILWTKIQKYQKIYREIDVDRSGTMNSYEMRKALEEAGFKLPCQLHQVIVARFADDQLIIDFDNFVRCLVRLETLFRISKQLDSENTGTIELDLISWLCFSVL

[22] = NIH-3T3 fibroblast cytotoxicity, dose response, cytotoxicity control, cell-based, fluorescence, Alamar Blue, secondary assay (AID 2327); type: functional;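 also: NIH-3T3 mouse fibroblasts cultured with fluconazole at 8 µg/mL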
[23] = C. albicans growth with fluconazole, confirmation, fluorescence, retest (AID 2467); type: functional, cell-based
[24] = inhibitors of intracellular T. cruzi replication, confirmation, NIH3T3 host cells, beta-gal luminescence (AID 2044); type: functional, cell-based;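 also: intracellular parasites grown in NIH/3T3 mouse fibroblasts as host cells; luminescent beta-galactosidase reporter signal from transgenic T. cruzi replicating inside host cells; inhibitors lower the luminescence signal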
[25] = inhibitors of SNCA 5'UTR-driven reporter translation, confirmation, H4 neuroglioma cells, luminescence (AID 1988); type: functional, cell-based
[26] = inhibitors of firefly luciferase expression or activity, dose response, H4 neuroglioma cells, luminescence (AID 1990); type: functional, cell-based
[27] = Luminescence Cell-Based Dose Response HTS to Identify Inhibitors of 5'UTR Stem-Loop Driven Prion Protein mRNA Translation in H4 Neuroglioblastoma Cells. [Related pubchem assays: 1827 (Project Summary), 1813 (Primary HTS)]; type: functional
[28] = biological target: T5, Serine/threonine-protein phosphatase (Candida dubliniensis (strain CD36 / CBS 7987 / NCPF 3949 / NRRLY-17841) (Yeast), UniProt B9W6M3); test: calcineurin pathway inhibitors in yeast reporter, dose response, S. cerevisiae, CDRE-lacZ, luminescence, secondary (AID 2388); type: functional, cell-based;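 also: yeast reporter cells carrying a calcineurin-responsive lacZ construct stimulated with calcium chloride; luminescent beta-galactosidase reporter signal in whole cells rather than isolated phosphatase activity; potency for inhibition where a drop in reporter signal means calcineurin blockade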
T5 sequence (B9W6M3 whole entry): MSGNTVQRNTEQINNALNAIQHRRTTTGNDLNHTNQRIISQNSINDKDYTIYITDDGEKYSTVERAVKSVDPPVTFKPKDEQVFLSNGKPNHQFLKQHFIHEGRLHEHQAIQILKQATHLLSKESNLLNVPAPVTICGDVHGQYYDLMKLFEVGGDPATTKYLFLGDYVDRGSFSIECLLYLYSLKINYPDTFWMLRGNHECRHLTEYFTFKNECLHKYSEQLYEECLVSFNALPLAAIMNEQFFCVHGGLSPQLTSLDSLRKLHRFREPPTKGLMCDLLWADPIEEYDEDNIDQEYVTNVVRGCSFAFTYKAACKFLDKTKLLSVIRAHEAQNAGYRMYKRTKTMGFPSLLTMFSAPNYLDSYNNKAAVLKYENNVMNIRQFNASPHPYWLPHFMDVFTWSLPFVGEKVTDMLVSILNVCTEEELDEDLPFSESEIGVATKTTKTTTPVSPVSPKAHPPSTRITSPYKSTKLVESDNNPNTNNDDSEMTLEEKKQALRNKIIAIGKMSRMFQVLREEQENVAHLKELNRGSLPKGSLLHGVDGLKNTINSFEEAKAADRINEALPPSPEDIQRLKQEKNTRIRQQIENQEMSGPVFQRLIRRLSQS

[29] = cytotoxicity toward NIH3T3 fibroblasts, dose response, counter-screen, cell-based, ATP luminescence, mouse fibroblasts (AID 2010); type: functional;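 also: cells exposed to compound for about 90 hours before reading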
[30] = biological target: ATP-dependent molecular chaperone HSP82 (Candida albicans (strain WO-1) (Yeast), UniProt C4YTQ8); test: loss of DOC-induced GRE-beta-galactosidase reporter signal, dose response, Hsp90 inhibitor project, S. cerevisiae, luminescence (AID 2400); type: functional, cell-based;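 also: beta-galactosidase luminescence from glucocorticoid response element reporter as proxy for Hsp90 function; inhibitor potency where signal loss means Hsp90 inhibition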
Chain of ATP-dependent molecular chaperone HSP82 (C4YTQ8 whole entry): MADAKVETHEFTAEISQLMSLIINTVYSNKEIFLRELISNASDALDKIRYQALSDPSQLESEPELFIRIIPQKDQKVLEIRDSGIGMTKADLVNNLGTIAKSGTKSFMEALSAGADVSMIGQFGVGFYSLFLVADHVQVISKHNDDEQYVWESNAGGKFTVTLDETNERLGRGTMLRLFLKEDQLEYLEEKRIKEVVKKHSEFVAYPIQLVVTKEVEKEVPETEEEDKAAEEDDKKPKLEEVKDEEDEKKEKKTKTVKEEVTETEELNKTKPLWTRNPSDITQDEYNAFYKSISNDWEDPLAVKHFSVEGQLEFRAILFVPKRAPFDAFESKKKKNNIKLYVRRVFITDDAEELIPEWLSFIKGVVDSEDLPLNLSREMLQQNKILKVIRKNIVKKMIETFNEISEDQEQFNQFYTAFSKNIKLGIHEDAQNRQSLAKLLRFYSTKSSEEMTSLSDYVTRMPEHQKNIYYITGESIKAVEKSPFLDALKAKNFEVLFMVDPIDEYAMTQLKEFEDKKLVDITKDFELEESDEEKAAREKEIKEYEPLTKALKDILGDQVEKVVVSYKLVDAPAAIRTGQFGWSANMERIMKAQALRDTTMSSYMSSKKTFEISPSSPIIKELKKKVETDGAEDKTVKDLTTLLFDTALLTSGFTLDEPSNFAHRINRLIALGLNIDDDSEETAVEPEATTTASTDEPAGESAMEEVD

In the case of `CC(C)(C)[S@+]([O-])N1Cc2cc(C(=O)NCc3ccccc3F)nc(-c3cccc(-c4ccncc4)c3)c2[C@@H]1CCO`, the AC50 [1] is reported as 29.1 µM (active), the AC50 [2] is reported as 1.68 µM (active) and the AC50 [3] is reported as 1.42 µM (active). For the same compound, the AC50 [4] was 1.36 µM (active) and the AC50 [5] was 1.93 µM (active).

For `CCOC(=O)c1ccc(N/C=C2\CCCCC2=O)cc1`, the EC50 [6] was > 300 µM (not active), the IC50 [7] was > 100 µM (active) and the EC50 [8] was > 300 µM (not active).

With `Cc1cnc(C(=O)OCC(=O)c2csc(N3CCCCC3)n2)cn1` the IC50 [9] was 5.81 µM (active).

For `CSc1ccc(S(=O)(=O)Nc2c(C)cccc2C)cc1`, the IC50 [10] was > 50 µM (not active).

In the case of `CCN(c1ccccc1)S(=O)(=O)c1ccc(C(=O)NNC(=O)c2ccccc2F)cc1`, the CC50 [11] is reported as 23.5 µM (active).

In the case of `C[C@H]1CN([C@@H](C)CO)C(=O)c2ccccc2-c2ccccc2CO[C@H]1CN(C)Cc1ccc(-c2ccccc2)cc1`, the AC50 [1] is reported as 22.2 µM (active), the AC50 [2] is reported as 1.59 µM (active) and the AC50 [3] is reported as 1.11 µM (active). For the same compound, the AC50 [4] was 3.92 µM (active) and the AC50 [5] was 1.19 µM (active).

With `COc1cc(CNCCc2ccc(F)cc2)ccc1OCc1ccc(Cl)nc1` the EC50 [12] was 1.88 µM (active) and the CC50 [13] was 26.1 µM (active).

With `Cc1ccccc1OCC(=O)Nc1ccccc1N1CCOCC1` the EC50 [14] was > 29.9 µM (not active) and the EC50 [15] was 5.08 µM (active).

In the case of `O=C(Cc1c[nH]c2ccccc12)Nc1nc2ccccc2[nH]1`, the EC50 [16] is reported as 6.91 µM (active) and the EC50 [17] is reported as > 50 µM (not active).

In the case of `CCN(CC)c1ccc(NC(=O)Nc2ccccc2C(F)(F)F)cc1`, the IC50 [18] is reported as 354 nM (active) and the EC50 [17] is reported as > 50 µM (not active).

With `CN(C)c1ccc(NC(=O)Nc2cccc3ccccc23)cc1` the IC50 [18] was 464 nM (active).

With `CCOc1ccc(Nc2nnc(SCc3nc(O)c4ccccc4n3)s2)cc1` the IC50 [19] was 27 µM (not active), the IC50 [20] was > 111 µM (not active) and the IC50 [21] was 29.2 µM (not active).

For `CCn1c2ccccc2c2nnc(SCC(=O)Nc3ccc4c(c3)OCO4)nc21`, the IC50 [10] was > 50 µM (not active).

For `CC(=O)O/N=C/c1c(N2CCOCC2)n(C)c2ccccc12`, the EC50 [22] was > 160 µM (inactive), the EC50 [23] was 145 nM (active) and the EC50 [24] was 1.25 µM (active). The EC50 [25] was 38.6 µM (active), the EC50 [26] was > 120 µM (not active) and the EC50 [27] was > 120 µM (not active). The EC50 [28] was > 180 µM (inactive), the EC50 [29] was 4.45 µM (active) and the CC50 [13] was > 40 µM (active). For the same compound, the EC50 [30] was > 160 µM (inactive).

For `Cc1nc(NC(=O)CSc2nnc(-c3ccc4c(c3)OCO4)o2)c(Cl)cc1Cl`, the IC50 [7] was > 100 µM (active).
